Data taken from ChEMBL document CHEMBL3259619, “Antibacterial activity of a series of N2,N4-disubstituted quinazoline-2,4-diamines” (J Med Chem, 2014).
Converted amounts (≈) assume the structure as drawn. The source made the active and inactive calls. Unless noted, the rule behind the calls is not given here.

What was measured:
[1] = Lipophilicity, log D of the compound at pH 3; type: physicochemical; conditions: buffer
Staphylococcus aureus [2] = experiment: Antimicrobial activity against trimethoprim-resistant Staphylococcus aureus assessed as complete inhibition of bacterial growth after 24 hrs; type: functional, organism-based
Staphylococcus aureus [3] = experiment: Antimicrobial activity against N2,N4-dibenzylquinazoline-2,4-diamine-induced methicillin-resistant Staphylococcus aureus CBD-635 mutant assessed as complete inhibition of bacterial growth after overnight incubation; type: functional
[4] = Cytotoxicity against human A549 cells assessed as cell viability recovery at 1.5 uM by MTT assay relative to untreated control; type: cell-based; conditions: read-out: Activity
Staphylococcus aureus [5] = experiment: Bactericidal activity against methicillin-resistant Staphylococcus aureus CBD-635 assessed as bacterial killing; type: functional
Staphylococcus aureus [6] = experiment: Antimicrobial activity against N2,N4-dibenzylquinazoline-2,4-diamine-induced methicillin-resistant Staphylococcus aureus CBD-635 mutant M2 assessed as complete inhibition of bacterial growth after overnight incubation; type: functional
Staphylococcus aureus [7] = experiment: Antimicrobial activity against methicillin-resistant Staphylococcus aureus CBD-635 assessed as zone of inhibition at 5 mg/ml after 24 hrs by disk diffusion assay; type: functional; conditions: CBD-635, 24 h, read-out: IZ
Staphylococcus aureus [8] = experiment: Antimicrobial activity against wild type Staphylococcus aureus in presence of sulfamethoxazole; type: functional
Staphylococcus aureus [9] = experiment: Antimicrobial activity against N2,N4-dibenzylquinazoline-2,4-diamine-induced methicillin-resistant Staphylococcus aureus CBD-635 mutant M4 assessed as complete inhibition of bacterial growth after overnight incubation; type: functional
Staphylococcus aureus [10] = experiment: Antimicrobial activity against Staphylococcus aureus infected Galleria mellonella assessed as increase in larvae survival at 5 times MIC; type: functional
[11] = Aqueous solubility of the compound at pH 7.4 after 18 hrs incubation by HPLC; type: physicochemical
Staphylococcus aureus [12] = experiment: Antimicrobial activity against Staphylococcus aureus infected in mouse assessed as increase in mouse survival at 10 times MIC via tail vein relative to untreated control; type: functional, organism-based
Staphylococcus aureus [13] = experiment: Antimicrobial activity against methicillin-resistant Staphylococcus aureus CBD-635 assessed as complete inhibition of bacterial growth after overnight incubation; type: functional
[14] = Cytotoxicity against human A549 cells assessed as cell viability recovery up to 367 uM by MTT assay relative to untreated control; type: cell-based; conditions: read-out: Activity
Staphylococcus aureus [15] = experiment: Antimicrobial activity against quinazoline-resistant Staphylococcus aureus assessed as complete inhibition of bacterial growth after 24 hrs; type: functional, organism-based
Staphylococcus aureus [16] = experiment: Antimicrobial activity against methicillin-resistant Staphylococcus aureus infected in mouse assessed as complete protection to mouse at MIC via tail vein relative to untreated control; type: functional, organism-based
Staphylococcus aureus [17] = experiment: Antimicrobial activity against N2,N4-dibenzylquinazoline-2,4-diamine-induced methicillin-resistant Staphylococcus aureus CBD-635 mutant M3 assessed as complete inhibition of bacterial growth after overnight incubation; type: functional
[18] = pampa, pH 4
Staphylococcus aureus [19] = experiment: Antimicrobial activity against N2,N4-dibenzylquinazoline-2,4-diamine-induced methicillin-resistant Staphylococcus aureus CBD-635 mutant M5 assessed as complete inhibition of bacterial growth after overnight incubation; type: functional
Staphylococcus aureus [20] = experiment: Antimicrobial activity against N2,N4-dibenzylquinazoline-2,4-diamine-induced methicillin-resistant Staphylococcus aureus CBD-635 mutant M7 assessed as complete inhibition of bacterial growth after overnight incubation; type: functional
Staphylococcus aureus [21] = experiment: Antimicrobial activity against methicillin-resistant Staphylococcus aureus CBD-635 assessed as complete inhibition of bacterial growth at 5 times MIC after overnight incubation in presence of tetrahydrofolic acid; type: functional, organism-based
[22] = pampa, pH 7.4
Staphylococcus aureus [23] = experiment: Antimicrobial activity against N2,N4-dibenzylquinazoline-2,4-diamine-induced methicillin-resistant Staphylococcus aureus CBD-635 mutant M6 assessed as complete inhibition of bacterial growth after overnight incubation; type: functional
[24] = Lipophilicity, log D of the compound at pH 7.4; type: physicochemical; conditions: buffer
Staphylococcus aureus [25] = experiment: Antimicrobial activity against Staphylococcus aureus infected in mouse assessed as increase in mouse survival at 5 times MIC via tail vein relative to untreated control; type: functional
Staphylococcus aureus [26] = experiment: Antimicrobial activity against N2,N4-dibenzylquinazoline-2,4-diamine-induced methicillin-resistant Staphylococcus aureus CBD-635 mutant M1 assessed as complete inhibition of bacterial growth after overnight incubation; type: functional
[27] = Aqueous solubility of the compound at pH 2 after 18 hrs incubation by HPLC; type: physicochemical
[28] = Cytotoxicity against human A549 cells assessed as cell viability recovery at 370 uM by MTT assay relative to untreated control; type: cell-based; conditions: read-out: Activity
Haemophilus influenzae = experiment: Antimicrobial activity against Haemophilus influenzae; type: functional
Staphylococcus = experiment: Antibacterial activity against Staphylococcus; type: functional
Moraxella catarrhalis = experiment: Antimicrobial activity against Moraxella catarrhalis; type: functional
Staphylococcus aureus [29] = experiment: Antibacterial activity against methicillin-resistant Staphylococcus aureus SA-1417 infected in mouse assessed as protection of mouse; type: functional; conditions: read-out: PD50
Listeria monocytogenes = experiment: Antimicrobial activity against Listeria monocytogenes; type: functional
Neisseria sp. = experiment: Antimicrobial activity against Neisseria species; type: functional
Legionella pneumophila = experiment: Antimicrobial activity against Legionella pneumophila; type: functional
Enterococcus = experiment: Antibacterial activity against Enterococcus; type: functional
Streptococcus = experiment: Antibacterial activity against Streptococcus; type: functional
Staphylococcus aureus [30] = experiment: Antimicrobial activity against wild type Staphylococcus aureus; type: functional
[31] = Cytotoxicity against human A549 cells assessed as cell viability recovery at up to 9.2 uM by MTT assay relative to untreated control; type: cell-based; conditions: read-out: Activity
[32] = Cytotoxicity against human A549 cells assessed as cell viability recovery at 36.7 to 459 uM by MTT assay relative to untreated control; type: cell-based; conditions: read-out: Activity
[33] = Cytotoxicity against human A549 cells assessed as cell viability recovery up to 459 uM by MTT assay relative to untreated control; type: cell-based; conditions: read-out: Activity

c1ccc(CNc2nc(NCc3ccccc3)c3ccccc3n2)cc1
logD [1]: 2.82
inhibition (Staphylococcus aureus [2]): Active
MIC (Staphylococcus aureus [3]): > 590 µM
viability at 1.5 µM [4]: 93.2%
MBC50 (Staphylococcus aureus [5]): inactive
MIC (Staphylococcus aureus [6]): > 590 µM
zone of inhibition at 5000 µg/mL (Staphylococcus aureus [7]): 13 mm
fractional inhibitory concentration index (FICI) (Staphylococcus aureus [8]): 0.12
MIC (Staphylococcus aureus [9]): > 590 µM
Survival (Staphylococcus aureus [10]): 50%
solubility at 18 h [11]: ≤ 10 µM
Activity (Staphylococcus aureus [12]): Active
MIC (Staphylococcus aureus [13]): 2.9 µM (≈ 0.987 µg/mL)
viability [14]: > 60%
inhibition (Staphylococcus aureus [15]): Active
Activity (Staphylococcus aureus [16]): Active
MIC (Staphylococcus aureus [17]): > 590 µM
permeability [18]: 312 ×10⁻⁶ cm/s
MIC (Staphylococcus aureus [19]): > 590 µM
MIC (Staphylococcus aureus [20]): > 590 µM
inhibition (Staphylococcus aureus [21]): inactive
permeability [22]: 383 ×10⁻⁶ cm/s
MIC (Staphylococcus aureus [23]): > 590 µM
logD [24]: 3.82
Survival (Staphylococcus aureus [25]): 69%
MIC (Staphylococcus aureus [26]): > 590 µM
solubility at 18 h [27]: ≥ 30 µM
viability at 370 µM [28]: 83.6%

Cc1c(N2CC[C@@H]([C@H](C)N)C2)c(F)cc2c(=O)[nH]c(=O)n(C3CC3)c12
MIC90 (Haemophilus influenzae): 0.5 µg/mL (≈ 1.44 µM)
MIC90 (Staphylococcus): 0.5 µg/mL (≈ 1.44 µM)
MIC90 (Moraxella catarrhalis): 0.5 µg/mL (≈ 1.44 µM)
ED50 (Staphylococcus aureus [29]): 2.5 mg/kg
MIC90 (Listeria monocytogenes): 0.5 µg/mL (≈ 1.44 µM)
MIC90 (Neisseria sp.): 0.5 µg/mL (≈ 1.44 µM)
MIC90 (Legionella pneumophila): 0.5 µg/mL (≈ 1.44 µM)
MIC (Enterococcus): 2 µg/mL (≈ 5.77 µM)
MIC90 (Streptococcus): 0.06 µg/mL (≈ 0.173 µM)

Cc1cc(NS(=O)(=O)c2ccc(N)cc2)no1 [SULFAMETHOXAZOLE]
MIC (Staphylococcus aureus [30]): 2400 µM (≈ 608 µg/mL)

CCCCNc1nc(NCCCC)c2ccccc2n1
viability [31]: 100%
MBC50 (Staphylococcus aureus [5]): 0.036 µM (≈ 0.00981 µg/mL)
zone of inhibition at 5000 µg/mL (Staphylococcus aureus [7]): 12 mm
viability at up to 459 µM [32]: 58.8%
MIC (Staphylococcus aureus [13]): 0.37 µM (≈ 0.101 µg/mL)
viability [33]: > 50%
inhibition (Staphylococcus aureus [21]): inactive
